In brackets after ≈: the same amount, converted by molar mass. Where two headings read alike, the source gives them in different places.
Key:
Type in all cases: cell-based
[1] = test system: Klebsiella pneumoniae colistin-resistant strain; experiment: microbe, parasite or virus in culture; settings: Klebsiella pneumoniae, ATCC19606, 24 h
[2] = test system: Acinetobacter baumannii (ATCC19606); experiment: MIC by broth dilution
[3] = test system: Pseudomonas aeruginosa (ATCC 27853) - high colistin-resistant strain; experiment: microbe, parasite or virus in culture
[4] = test system: Escherichia coli serotype O157 (TW07793) colistin-resistant strain; experiment: microbe, parasite or virus in culture; settings: 24 h
[5] = test system: Klebsiella pneumoniae (CRE) CHS 67 (NR48569) colistin-resistant strain; experiment: microbe, parasite or virus in culture; settings: 24 h
[6] = test system: Burkholderia cepacia genomovar III, LMG16656 colistin-resistant strain; experiment: microbe, parasite or virus in culture; settings: broth dilution, 24 h, entry 25
[7] = test system: Escherichia coli (ATCC 35218); experiment: MIC by broth dilution
[8] = test system: Salmonella enterica Pennsylvania, Serovar Typhimurium, Isolate 1 (NR4333); experiment: MIC by broth dilution; settings: 24 h
[9] = test system: Acinetobacter baumannii (ATCC BAA1800); experiment: MIC by broth dilution
[10] = test system: Burkholderia cepacia genomovar III, LMG16656 (wild type); experiment: microbe, parasite or virus in culture
[11] = test system: Proteus mirabilis urine strain WGLW4 colistin-resistant strain; experiment: microbe, parasite or virus in culture; settings: 24 h
[12] = test system: Pseudomonas aeruginosa MRSN 1356 (NR51521) colistin-resistant strain; experiment: microbe, parasite or virus in culture; settings: 24 h
[13] = test system: Proteus mirabilis urine strain WGLW4 (Wild type); experiment: MIC by broth dilution; settings: 24 h
[14] = test system: Pseudomonas aeruginosa (ATCC 27853) - intermediate colistin-resistant strain; experiment: microbe, parasite or virus in culture
[15] = test system: Pseudomonas aeruginosa (ATCC 27853); experiment: MIC by broth dilution
[16] = test system: Serratia sp. strain Ag2 (Wild-type); experiment: MIC by broth dilution
[17] = test system: Salmonella enterica subsp. enterica Typhimurium (BAA 2721) (Wild type); experiment: MIC by broth dilution; settings: 24 h
[18] = test system: Escherichia coli (ATCC 35218) colistin-resistant strain; experiment: microbe, parasite or virus in culture
[19] = test system: Salmonella enterica Pennsylvania, Serovar Typhimurium, Isolate 1 (NR4333) colistin-resistant strain; experiment: microbe, parasite or virus in culture; settings: 24 h
[20] = test system: Burkholderia thailandensis E264 colistin-resistant strain; experiment: microbe, parasite or virus in culture
[21] = test system: Acinetobacter baumannii (ATCC19606) colistin-resistant strain; experiment: microbe, parasite or virus in culture
[22] = test system: Escherichia coli serotype O157 (TW07793); experiment: microbe, parasite or virus in culture; settings: broth dilution, 24 h, entry 3
[23] = test system: Pseudomonas aeruginosa MRSN 1356 (NR51521); experiment: MIC by broth dilution; settings: 24 h
[24] = test system: Serratia sp. strain Ag2 colistin-resistant strain; experiment: microbe, parasite or virus in culture; settings: 24 h
[25] = test system: Burkholderia multivorans CGD1 (wild type); experiment: MIC by broth dilution; settings: 24 h
[26] = test system: Acinetobacter baumannii (ATCC BAA1800) colistin-resistant strain; experiment: microbe, parasite or virus in culture
[27] = test system: Klebsiella pneumoniae (ATCC 19606); experiment: MIC by broth dilution; settings: Klebsiella pneumoniae, ATCC19606, 24 h, entry 9
[28] = test system: Pseudomonas aeruginosa MRSN 1380 (NR51522) colistin-resistant strain; experiment: microbe, parasite or virus in culture; settings: 24 h
[29] = test system: E. coli ATCC35218 colistin^R; settings: 30 min; reference molecule at 10 mg/mL
[30] = test system: Klebsiella pneumoniae (CRE) CHS 67 (NR48569); experiment: MIC by broth dilution; settings: 24 h
[31] = test system: Salmonella enterica subsp. enterica Typhimurium (BAA 2721) intermediate colistin-resistant strain; experiment: microbe, parasite or virus in culture; settings: 24 h
[32] = test system: Pseudomonas aeruginosa MRSN 1380 (NR51522); experiment: MIC by broth dilution; settings: 24 h
[33] = test system: Burkholderia multivorans CGD1 colistin-resistant strain; experiment: microbe, parasite or virus in culture; settings: broth dilution, 24 h, entry 21
[34] = test system: Burkholderia thailandensis E264 (Wild type); experiment: microbe, parasite or virus in culture; settings: 24 h
[35] = test system: colistin-resistant Gram-negative bacteria; settings: under a fluorescent light
[36] = test system: Klebsiella pneumoniae (ATCC 19606) colistin-resistant strain; experiment: microbe, parasite or virus in culture; settings: broth dilution, 24 h; entry 10
[37] = test system: Klebsiella pneumoniae; experiment: MIC by broth dilution; settings: 24 h, entry 9
[38] = Pseudomonas aeruginosa, ATCC27853, 24 h

Compound: C[C@@H](O)[C@H]1C(=O)N2C(C(=O)O)=C(S[C@@H]3CN[C@H](C(=O)N(C)C)C3)[C@H](C)[C@H]12 [Meropenem]
- MIC [1]: > 100 µg/mL
- MIC ([2]; Acinetobacter baumannii, ATCC19606, 24 h, entry 5, read-out: MIC): 100 µg/mL (≈ 261 µM)
- MIC [3, 38]: > 100 µg/mL
- MIC ([4]; Escherichia coli): 12.5 µg/mL (≈ 32.6 µM)
- MIC ([5]; Klebsiella pneumoniae): > 100 µg/mL
- MIC ([6]; Burkholderia cepacia, LMG16656, read-out: MIC): 100 µg/mL (≈ 261 µM)
- MIC ([7]; Escherichia coli, ATCC35218, 24 h, entry 1, read-out: MIC): < 0.8 µg/mL
- MIC ([8]; Salmonella enterica, entry 28, read-out: MIC): 1.6 µg/mL (≈ 4.17 µM)
- MIC ([9]; Acinetobacter baumannii, ATCCBAA1800, 24 h, entry 7, read-out: MIC): > 100 µg/mL
- MIC ([10]; Burkholderia cepacia, LMG16656, 24 h): 25 µg/mL (≈ 65.2 µM)
- MIC ([11]; Proteus mirabilis): > 200 µg/mL
- MIC ([12]; Pseudomonas aeruginosa): > 100 µg/mL
- MIC ([13]; Proteus mirabilis, entry 30, read-out: MIC): > 200 µg/mL
- MIC [14, 38]: > 100 µg/mL
- MIC ([15]; Pseudomonas aeruginosa, ATCC27853, 24 h, entry 13, read-out: MIC): > 100 µg/mL
- MIC ([16]; Serratia, 24 h, entry 32, read-out: MIC): 0.039 µg/mL (≈ 0.102 µM)
- MIC ([16]; Table 1, 24 h): 4000 µg/mL (≈ 10400 µM)
- MIC ([17]; Salmonella enterica, entry 26, read-out: MIC): 3.1 µg/mL (≈ 8.08 µM)
- MIC ([18]; Escherichia coli, ATCC35218, 24 h): 25 µg/mL (≈ 65.2 µM)
- MIC ([19]; Salmonella enterica): > 100 µg/mL
- MIC ([20]; Burkholderia thailandensis, 24 h): > 100 µg/mL
- MIC ([21]; Acinetobacter baumannii, ATCC19606, 24 h): > 100 µg/mL
- MIC ([22]; Escherichia coli, read-out: MIC): 1.6 µg/mL (≈ 4.17 µM)
- MIC ([23]; Pseudomonas aeruginosa, entry 16, read-out: MIC): > 100 µg/mL
- MIC ([24]; Serratia): 12.5 µg/mL (≈ 32.6 µM)
- MIC ([25]; Burkholderia multivorans, entry 20, read-out: MIC): 25 µg/mL (≈ 65.2 µM)
- MIC ([26]; Acinetobacter baumannii, ATCCBAA1800, 24 h): > 100 µg/mL
- MIC [27]: > 100 µg/mL
- MIC ([28]; Pseudomonas aeruginosa): 100 µg/mL (≈ 261 µM)
- reduction of strain (CFU) [29]: 0%
- MIC ([30]; Klebsiella pneumoniae, entry 11, read-out: MIC): > 100 µg/mL
- MIC ([31]; Salmonella enterica): 6.25 µg/mL (≈ 16.3 µM)
- MIC ([32]; Pseudomonas aeruginosa, entry 18, read-out: MIC): 3.13 µg/mL (≈ 8.16 µM)
- MIC ([33]; Burkholderia multivorans, read-out: MIC): > 100 µg/mL
- MIC ([34]; Burkholderia thailandensis): 12.5 µg/mL (≈ 32.6 µM)

Compound: O=C1OC2(c3cc(I)c(O)c(I)c3Oc3c2cc(I)c(O)c3I)c2c(Cl)c(Cl)c(Cl)c(Cl)c21 [RB, 4,5,6,7-tetrachloro-2′,4′,5′,7′-tetraiodo-fluorescein]
- bactericidal activity [35]: 0.05 to 6.25 µg/mL

Compound: Amikacin
- MIC [36]: 64.0 µg/mL
- MIC ([2]; 24 h, entry 5): 16.0 µg/mL
- MIC ([3]; broth dilution, 24 h, entry 15): >200 µg/mL
- MIC ([4]; broth dilution, entry 4): 25.0 µg/mL
- MIC ([5]; broth dilution, entry 12): >100 µg/mL
- MIC [6]: >200 µg/mL
- MIC ([7]; 24 h, entry 1): 3.1 µg/mL
- MIC ([8]; entry 28): 1.6 µg/mL
- MIC ([9]; 24 h, entry 7): 64.0 µg/mL
- MIC ([10]; broth dilution, 24 h, entry 24): >100 µg/mL
- MIC ([11]; broth dilution, entry 31): >200 µg/mL
- MIC ([12]; broth dilution, entry 17): >100 µg/mL
- MIC ([13]; entry 30): >200 µg/mL
- MIC ([14]; broth dilution, 24 h, entry 14): >100 µg/mL
- MIC ([15]; 24 h, entry 13): 32.0 µg/mL
- MIC ([16]; 24 h, entry 32): >200 µg/mL
- MIC ([17]; entry 26): 1.6 µg/mL
- MIC ([18]; broth dilution, 24 h, entry 2): >100 µg/mL
- MIC ([19]; broth dilution, entry 29): >100 µg/mL
- MIC [20]: >200 µg/mL
- MIC ([21]; broth dilution, 24 h, entry 6): >100 µg/mL
- MIC [22]: 1.6 µg/mL
- MIC ([23]; entry 16): 32.0 µg/mL
- MIC ([24]; broth dilution, entry 33): >200 µg/mL
- MIC ([25]; entry 20): 200.0 µg/mL
- MIC ([26]; broth dilution, 24 h, entry 8): >100 µg/mL
- MIC [37]: 4.0 µg/mL
- MIC ([28]; broth dilution, entry 19): >100 µg/mL
- reduction of strain (CFU) [29]: about 3.5%
- MIC ([30]; entry 11): 16.0 µg/mL
- MIC ([31]; broth dilution, entry 27): >100 µg/mL
- MIC ([32]; entry 18): 64.0 µg/mL
- MIC [33]: >200.0 µg/mL
- MIC ([34]; broth dilution, entry 22): 64.0 µg/mL
